Data taken from PMC8921294, “Inhibition of mitochondrial LonP1 protease by allosteric blockade of ATP binding and hydrolysis via CDDO and its derivatives” (The Journal of Biological Chemistry, 2022).
Several values for one entry are separate records, joined by “and”; a condition that tells them apart may be missing. Equal values may be shown once.

Tests used:
Type in all cases: biochemical
[1] = molecular target: T1, Human mitochondrial LonP1 (wild-type) ATPase (Homo sapiens, UniProt P36776); assay: Endpoint ATPase assay (ADP-Glo), wild-type LonP1; conditions: end-point ATPase assay, 1 mM ATP, 60 min preincubation 25 °C; Table 1
T1 construct: hexa-histidine (N); made in house; host or cells: Rosetta 2 E. coli
T1 sequence (P36776 68-959): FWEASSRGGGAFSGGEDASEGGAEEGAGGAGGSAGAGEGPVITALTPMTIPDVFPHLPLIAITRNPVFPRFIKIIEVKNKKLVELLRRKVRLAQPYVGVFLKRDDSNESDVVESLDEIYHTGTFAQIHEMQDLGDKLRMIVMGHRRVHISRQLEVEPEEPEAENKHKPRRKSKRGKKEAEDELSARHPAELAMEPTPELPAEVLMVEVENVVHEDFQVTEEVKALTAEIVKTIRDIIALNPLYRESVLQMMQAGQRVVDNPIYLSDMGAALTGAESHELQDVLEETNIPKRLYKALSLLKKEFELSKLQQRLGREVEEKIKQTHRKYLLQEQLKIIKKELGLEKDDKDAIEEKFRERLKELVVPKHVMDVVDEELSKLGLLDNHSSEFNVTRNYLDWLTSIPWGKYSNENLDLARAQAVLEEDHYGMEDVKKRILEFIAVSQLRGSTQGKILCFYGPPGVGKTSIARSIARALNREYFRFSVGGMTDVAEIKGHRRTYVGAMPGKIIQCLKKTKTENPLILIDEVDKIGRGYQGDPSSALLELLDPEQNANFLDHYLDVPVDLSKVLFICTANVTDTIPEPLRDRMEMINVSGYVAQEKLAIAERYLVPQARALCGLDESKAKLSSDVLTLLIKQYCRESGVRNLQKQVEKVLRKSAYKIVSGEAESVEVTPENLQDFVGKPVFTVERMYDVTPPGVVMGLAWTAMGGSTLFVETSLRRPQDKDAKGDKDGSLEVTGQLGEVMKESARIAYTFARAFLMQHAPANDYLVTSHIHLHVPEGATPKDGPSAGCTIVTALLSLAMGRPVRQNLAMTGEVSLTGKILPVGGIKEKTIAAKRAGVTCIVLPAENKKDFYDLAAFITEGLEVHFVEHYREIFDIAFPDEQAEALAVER
Experimental: ADP-Glo (Promega) assays were performed according to the manufacturer's protocols. Purified wild-type or mutant LonP1 (400 nM monomer), the 26S proteasome (3 nM), or no enzyme controls were preincubated in 96-well plates (60 min, 25 °C) with ten different concentrations of CDDO and its derivatives, TP-82, enoxolone (5 μM) or DMSO vehicle control in buffer (40 mM Tris-HCl (pH 7.5), 20 mM MgCl2, 0.1 mg/ml BSA and 5% DMSO). The 26S and 20S proteasome were also assayed at 0, 0.75, 1.5, 3, 6, and 12 nM in the absence of CDDO derivatives. UltraPure ATP (1 mM final) was added, and reactions (50 μl final) were incubated for 60 min at 25 °C, then 5 μl was transferred in quadruplicate to a 384-well plate. Assay reagents were used to quench further ATPase activity and generate luminescence signals proportional to the concentration of ADP formed. Background (no enzyme control) luminescence values were subtracted, and resultant values were reported as a percentage of the no drug control (100%). Data were fit to four-parameter dose–response curves using GraphPad Prism. The error bars represent the standard deviation (SD) of four replicate reactions from at least three independent experiments.

[2] = molecular target: T2, Human LonP1 protease (Homo sapiens, UniProt P36776); assay: FITC-casein protease assay (ATP-dependent proteolysis); conditions: for Inhibition of LonP1-mediated degradation of FITC-casein: 30 min preincubation at 30 °C, ATP 4 mM; for Preincubation time after which ATP-dependent proteolysis is inhibited: preincubation at 30 °C
T2 construct: hexa-histidine (N); made in house; host or cells: Rosetta 2 E. coli
T2 sequence (P36776 68-959): T1 sequence (P36776 68-959)
Experimental: Human LonP1 (1.0 μM monomer) was preincubated with CDDO derivatives, TP-82, enoxolone (5 μM) or DMSO vehicle control (1%) in buffer (150 mM NaCl, 50 mM Hepes-KOH pH 8.0, 10 mM MgCl2, 0.1 mg/ml BSA) for 30 min at 30 °C. Reactions were initiated by the addition of FITC-casein (0.1 mg/ml) and ATP (4.0 mM) and incubated at 37 °C. The kinetics of FITC-casein degradation was measured by the increase in relative fluorescence units (RFU) at 490–525 nm wavelength at 37 °C using a Spectramax or Biotek Synergy plate reader. For endpoint assays, aliquots of reactions incubated at 37 °C were removed at indicated time points and terminated by adding 5X reducing sample buffer (RSB). The decrease of intact FITC-casein was determined by SDS-PAGE followed by visualization using FluorChem or Chemi-Doc systems.
Reactions (500 μl) containing LonP1 (1.0 μM monomer) in buffer (150 mM NaCl, 50 mM Hepes-KOH pH 8.0, 10 mM MgCl2) were preincubated with CDDO-Me (10 μM) or DMSO (1%) for 60 min at 30 °C. After this period, respective aliquots (50 μl) were removed and assayed for FITC-casein degradation to confirm inhibition by CDDO-Me. The remaining 450 μl reaction was transferred to a Slide-A-Lyzer (100 kDa MWCO) and dialyzed against 500 ml Buffer K (50 mM Hepes KOH, pH 8.0, 150 mM NaCl, 10 mM MgOAc2, 20% glycerol) for 24 h at 4 °C. After this period, the protein concentration was measured to determine protein recovery and the protease activity of LonP1, which had been preincubated with and without CDDO-Me was measured using the FITC-casein degradation assay.

[3] = molecular target: T3, Human mitochondrial LonP1 (LonP1^WT) ATPase (Homo sapiens, UniProt P36776); assay: Continuous NADH-coupled ATPase assay, wild-type LonP1; conditions: for Modality (mechanism of LonP1 ATPase inhibition) / Ki / αKi / α: continuous ATPase assay; for Modality (mechanism of LonP1 ATPase inhibition): ATP titrated; for Ki: LonP1 400 nM, 30 min preincubation; for αKi: dissociation constant for ES complex; for α: relates αKi to Ki
T3 construct: hexa-histidine (N); made in house; host or cells: Rosetta 2 E. coli
T3 sequence (P36776 68-959): T1 sequence (P36776 68-959)
Experimental: ATPase reactions (200 μl total) were performed in 96-well plates at room temperature. LonP1 (400 nM monomer) was preincubated with DMSO (1–2%) vehicle control or CDDO derivatives in buffer (50 mM HEPES-KOH pH 7.5, 5 mM magnesium acetate, 75 mM potassium acetate) for 30 to 45 min at room temperature or 30 °C. The reactions were initiated by the addition of phosphoenolpyruvate (PEP, 3 mM), NADH (300 μM), pyruvate kinase and lactate dehydrogenase (PK-LDH) (12–20 U/ml), and ATP concentrations as indicated. The change in NADH absorbance at 340 nm was monitored in Spectramax plate reader for 5 min to obtain reaction velocities. Data were fit to the Michaelis–Menten curve using GraphPad Prism 5, and the error bars represent the standard deviation (SD) of four replicate reactions from at least three independent experiments.

Row | SMILES | IC50 [1] [µM] | Reversibility: proteolytic activity after dialysis ([2]; 10 μM, dialysis at 4 °C for 24 h) | Degradation of FITC-casein before dialysis ([2]; 10 μM, preincubation 60 min at 30 °C) | Inhibition of LonP1-mediated degradation of FITC-casein [2] | Preincubation time after which ATP-dependent proteolysis is inhibited [2] [min] | Modality (mechanism of LonP1 ATPase inhibition) [3] | Ki [3] [µM] | αKi [3] | α [3] | Ki relative to the Ki of other CDDO derivatives ([3]; fold higher) [fold]
1 | COC(=O)[C@]12CCC(C)(C)C[C@H]1[C@H]1C(=O)C=C3[C@@]4(C)C=C(C#N)C(=O)C(C)(C)[C@@H]4CC[C@@]3(C)[C@]1(C)CC2 [CDDO-Me] | 1.9 ± 0.3 | restored proteolytic activity | completely block | inhibit | 5 | noncompetitive | 0.8 ± 0.1 | 3.3 ± 1.0 µM | 4.3 | –
2 | CC1(C)CC[C@]2(C(=O)OC(=O)[C@]34CCC(C)(C)C[C@H]3[C@H]3C(=O)C=C5[C@@]6(C)C=C(C#N)C(=O)C(C)(C)[C@@H]6CC[C@@]5(C)[C@]3(C)CC4)CC[C@]3(C)[C@H](C(=O)C=C4[C@@]5(C)C=C(C#N)C(=O)C(C)(C)[C@@H]5CC[C@]43C)[C@@H]2C1 [CDDO-anhydride] | 19.4 ± 3.3 | – | – | – | – | competitive | 9.5 ± 1.4 | – | – | ~3.5
3 | CC1(C)CC[C@]2(C(=O)O)CC[C@]3(C)[C@H](C(=O)C=C4[C@@]5(C)C=C(C#N)C(=O)C(C)(C)[C@@H]5CC[C@]43C)[C@@H]2C1 [CDDO, 2-cyano-3,12-dioxooleana-1,9(11)-dien-28-oic acid] | 13 ± 6 | – | – | inhibit | ≥ 20 | noncompetitive | 2.6 ± 0.5 | 14 ± 2 µM and 14.0 ± 2.0 µM | 5.4 | –
